tested on: cyclooxygenase (COX; isoform not resolved, COX1/COX2); assay: fluorometric COX peroxidase activity assay (Amplex Red) in BV2 cell lysate; assay type: biochemical

Structure (SMILES)	IC50
CC(C(=O)O)c1cccc(C(=O)c2ccccc2)c1 (stereo not drawn) [KPF, ketoprofen]	850 ± 1180 nM
CC(C(=O)NCCCC[C@H](N)C(=O)O)c1cccc(C(=O)c2ccccc2)c1 (stereo partly drawn) [PD2, pro-drug 2]	1050 ± 1210 nM
CC(C(=O)NCC[C@H](N)C(=O)O)c1cccc(C(=O)c2ccccc2)c1 (stereo partly drawn) [PD3, pro-drug 3]	2260 ± 1330 nM

Source: PMC7238114, “L-Type Amino Acid Transporter 1-Utilizing Prodrugs of Ketoprofen Can Efficiently Reduce Brain Prostaglandin Levels” (Pharmaceutics, 2020)
